# Measured values as given in ChEMBL document CHEMBL5042510, “Structure-Guided Discovery of Aminoquinazolines as Brain-Penetrant and Selective LRRK2 Inhibitors” (J Med Chem, 2022).
# Experiments:
# mouse Bcrp = assay: Efflux ratio of apparent permeability across basolateral to apical over apical to basolateral side in mouse Bcrp-transfected dog MDCK-II cells at 0.1 to 1 uM measured after 3 hrs by LC/MS/MS analysis; assay type: ADME, cell-based, Canis lupus familiaris; details: dose 0.1-1 µM
# [1] = Intrinsic clearance in human hepatocytes at 0.3 uM incubated for 90 mins by LC/MS/MS analysis; assay type: ADME, cell-based, Hepatocyte; details: read-out: CLH
# Homo sapiens [2] = species: Homo sapiens; assay: Selectivity ratio of IC50 for MAP3K8 (unknown origin) to IC50 for LRRK2 (unknown origin)
# [3] = Intrinsic clearance in Beagle dog at 0.25 mg/kg, iv by LC-MS/MS analysis; assay type: ADME, organism-based, Canis lupus familiaris; details: in vivo
# [4] = MRT in Beagle dog at 0.25 mg/kg, iv by LC-MS/MS analysis; assay type: ADME, organism-based, Canis lupus familiaris; details: in vivo
# [5] = test system: Leucine-rich repeat serine/threonine-protein kinase 2 (Homo sapiens), Q5S007 [G2019S]; assay: Inhibition of LRRK2 […] mutant expressed in human SH-SY5Y cells assessed as unbound concentration required for inhibition of phosphorylation of LRRK2 at Ser935 residue incubated for 90 mins by MSD assay; assay type: cell-based
# Chain of Leucine-rich repeat serine/threonine-protein kinase 2 (Homo sapiens), Q5S007 [G2019S] (Q5S007 whole entry G2019S): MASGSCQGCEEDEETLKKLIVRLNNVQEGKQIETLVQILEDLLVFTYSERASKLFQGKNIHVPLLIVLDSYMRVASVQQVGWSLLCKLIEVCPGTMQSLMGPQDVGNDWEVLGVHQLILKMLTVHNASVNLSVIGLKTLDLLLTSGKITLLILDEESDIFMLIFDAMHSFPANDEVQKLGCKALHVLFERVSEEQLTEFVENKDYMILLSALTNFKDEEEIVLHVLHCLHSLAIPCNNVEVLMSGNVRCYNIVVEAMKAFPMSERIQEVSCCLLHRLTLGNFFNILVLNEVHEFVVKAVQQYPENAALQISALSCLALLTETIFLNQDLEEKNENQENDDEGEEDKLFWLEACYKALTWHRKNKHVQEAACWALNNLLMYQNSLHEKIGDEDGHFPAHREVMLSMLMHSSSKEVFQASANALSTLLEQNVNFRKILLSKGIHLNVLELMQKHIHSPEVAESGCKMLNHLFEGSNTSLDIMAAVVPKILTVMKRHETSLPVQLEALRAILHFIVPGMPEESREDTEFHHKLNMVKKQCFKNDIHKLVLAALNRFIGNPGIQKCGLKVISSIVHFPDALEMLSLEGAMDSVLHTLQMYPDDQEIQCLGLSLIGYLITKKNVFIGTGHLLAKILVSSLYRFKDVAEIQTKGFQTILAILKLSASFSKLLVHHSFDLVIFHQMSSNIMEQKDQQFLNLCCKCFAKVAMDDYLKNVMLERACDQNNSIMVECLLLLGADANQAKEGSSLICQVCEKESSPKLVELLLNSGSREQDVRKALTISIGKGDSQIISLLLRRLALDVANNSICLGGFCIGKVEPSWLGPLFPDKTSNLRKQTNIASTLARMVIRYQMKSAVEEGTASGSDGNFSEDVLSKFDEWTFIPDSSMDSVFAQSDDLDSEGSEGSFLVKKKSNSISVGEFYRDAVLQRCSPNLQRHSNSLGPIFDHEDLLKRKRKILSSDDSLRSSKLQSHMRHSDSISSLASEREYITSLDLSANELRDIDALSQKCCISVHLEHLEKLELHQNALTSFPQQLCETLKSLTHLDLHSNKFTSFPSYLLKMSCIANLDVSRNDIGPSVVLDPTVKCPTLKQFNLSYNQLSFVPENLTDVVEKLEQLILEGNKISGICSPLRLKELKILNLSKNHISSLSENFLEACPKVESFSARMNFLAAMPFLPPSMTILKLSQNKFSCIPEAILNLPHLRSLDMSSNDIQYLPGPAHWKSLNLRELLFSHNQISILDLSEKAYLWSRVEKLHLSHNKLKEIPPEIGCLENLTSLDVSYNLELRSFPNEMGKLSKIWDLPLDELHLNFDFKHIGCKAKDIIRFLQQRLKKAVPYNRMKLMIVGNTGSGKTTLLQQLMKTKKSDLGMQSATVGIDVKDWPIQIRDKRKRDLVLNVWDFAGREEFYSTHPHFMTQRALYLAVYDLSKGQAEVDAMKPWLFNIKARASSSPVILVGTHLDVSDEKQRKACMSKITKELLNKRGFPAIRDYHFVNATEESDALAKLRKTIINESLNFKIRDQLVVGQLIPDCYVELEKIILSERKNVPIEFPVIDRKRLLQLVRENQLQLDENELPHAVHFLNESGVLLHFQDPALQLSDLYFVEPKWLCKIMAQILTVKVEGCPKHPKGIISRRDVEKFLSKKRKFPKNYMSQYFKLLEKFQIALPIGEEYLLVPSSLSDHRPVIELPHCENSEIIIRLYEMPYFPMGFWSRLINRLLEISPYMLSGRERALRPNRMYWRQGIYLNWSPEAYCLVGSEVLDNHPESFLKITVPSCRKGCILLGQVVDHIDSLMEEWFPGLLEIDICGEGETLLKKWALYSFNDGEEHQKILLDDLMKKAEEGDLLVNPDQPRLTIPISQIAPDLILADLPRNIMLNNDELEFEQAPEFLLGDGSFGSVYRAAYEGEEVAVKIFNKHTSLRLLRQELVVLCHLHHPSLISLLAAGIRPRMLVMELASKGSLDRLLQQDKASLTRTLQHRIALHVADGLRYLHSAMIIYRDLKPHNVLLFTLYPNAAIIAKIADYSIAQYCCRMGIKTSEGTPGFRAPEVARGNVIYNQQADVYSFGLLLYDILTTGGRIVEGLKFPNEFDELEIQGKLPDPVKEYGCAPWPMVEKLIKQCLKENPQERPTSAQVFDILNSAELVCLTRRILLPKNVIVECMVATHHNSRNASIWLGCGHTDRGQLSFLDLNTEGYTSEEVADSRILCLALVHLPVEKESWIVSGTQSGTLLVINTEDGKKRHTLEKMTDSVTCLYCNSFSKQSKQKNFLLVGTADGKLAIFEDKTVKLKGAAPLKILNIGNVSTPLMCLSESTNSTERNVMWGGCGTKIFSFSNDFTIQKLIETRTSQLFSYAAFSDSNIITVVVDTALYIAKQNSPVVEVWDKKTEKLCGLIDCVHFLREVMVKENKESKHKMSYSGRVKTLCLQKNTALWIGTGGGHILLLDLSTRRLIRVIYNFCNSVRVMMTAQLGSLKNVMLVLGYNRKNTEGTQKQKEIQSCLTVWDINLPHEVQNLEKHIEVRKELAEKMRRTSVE
# [6] = Total plasma clearance in Wistar Han rat at 2 mg/kg, iv by LC-MS/MS analysis; assay type: ADME, organism-based
# [7] = Toxicity in rat assessed as drug tolerability at 25 to 300 mg/kg, po qd administered for 4 days; assay type: organism-based; details: in vivo, 96 h, dose 25-300 mg/kg, time 4 day
# [8] = Intrinsic clearance in dog hepatocytes at 0.3 uM incubated for 90 mins by LC/MS/MS analysis; assay type: ADME, cell-based, Canis lupus familiaris, Hepatocyte; details: read-out: CLH
# [9] = Toxicity in rat assessed as positive liver transcriptional score at 300 mg/kg, po qd administered for 4 days; assay type: organism-based; details: in vivo, 96 h, time 4 day
# [10] = molecular target: Voltage-gated inwardly rectifying potassium channel KCNH2 (Homo sapiens, UniProt Q12809); assay: Inhibition of human ERG by voltage clamp assay; assay type: toxicity
# Chain of Voltage-gated inwardly rectifying potassium channel KCNH2 (Q12809 whole entry): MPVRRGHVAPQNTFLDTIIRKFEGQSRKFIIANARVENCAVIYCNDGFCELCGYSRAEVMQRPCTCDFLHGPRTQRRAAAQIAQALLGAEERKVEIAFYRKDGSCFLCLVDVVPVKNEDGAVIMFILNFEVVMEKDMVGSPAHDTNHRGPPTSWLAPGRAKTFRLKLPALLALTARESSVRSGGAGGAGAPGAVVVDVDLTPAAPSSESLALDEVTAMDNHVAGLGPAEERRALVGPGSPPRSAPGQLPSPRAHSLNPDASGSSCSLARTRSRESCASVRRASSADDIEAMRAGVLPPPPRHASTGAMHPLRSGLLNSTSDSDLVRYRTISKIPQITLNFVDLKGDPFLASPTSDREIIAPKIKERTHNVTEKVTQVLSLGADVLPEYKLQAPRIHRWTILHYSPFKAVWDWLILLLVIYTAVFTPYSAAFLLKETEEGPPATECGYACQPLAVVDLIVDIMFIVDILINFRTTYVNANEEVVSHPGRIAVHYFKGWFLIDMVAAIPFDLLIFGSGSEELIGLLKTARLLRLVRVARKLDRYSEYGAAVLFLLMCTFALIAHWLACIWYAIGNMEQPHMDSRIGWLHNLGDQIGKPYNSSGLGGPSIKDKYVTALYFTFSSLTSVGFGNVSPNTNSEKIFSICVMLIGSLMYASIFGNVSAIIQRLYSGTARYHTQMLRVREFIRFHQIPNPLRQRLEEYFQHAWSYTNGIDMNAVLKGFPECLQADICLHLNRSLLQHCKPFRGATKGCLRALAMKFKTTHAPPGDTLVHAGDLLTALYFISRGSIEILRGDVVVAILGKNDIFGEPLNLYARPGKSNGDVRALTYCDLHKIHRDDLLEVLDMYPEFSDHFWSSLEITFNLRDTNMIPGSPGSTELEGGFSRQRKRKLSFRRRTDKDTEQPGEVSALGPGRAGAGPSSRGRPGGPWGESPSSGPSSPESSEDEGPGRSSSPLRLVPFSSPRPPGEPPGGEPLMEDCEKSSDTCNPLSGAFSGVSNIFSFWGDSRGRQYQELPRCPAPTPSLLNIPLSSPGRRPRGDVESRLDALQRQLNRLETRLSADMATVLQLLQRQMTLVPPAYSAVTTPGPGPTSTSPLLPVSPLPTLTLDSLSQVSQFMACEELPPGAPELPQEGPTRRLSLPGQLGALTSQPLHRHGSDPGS
# [11] = Unbound brain-to-plasma concentration ratio in rat at 2.5 uM incubated for 4 hrs by equilibrium dialysis method; assay type: ADME, cell-free; details: brain and plasma (unbound), read-out: K(p,uu,brain)
# [12] = Total plasma clearance in Beagle dog at 0.25 mg/kg, iv by LC-MS/MS analysis; assay type: ADME, organism-based, Canis lupus familiaris
# Homo sapiens [13] = species: Homo sapiens; assay: Selectivity ratio of IC50 for PRKCZ (unknown origin) to IC50 for LRRK2 (unknown origin)
# [14] = Toxicity in rat assessed as body weight loss at 300 mg/kg, po qd administered for 4 days; assay type: organism-based; details: in vivo, 96 h, time 4 day
# [15] = molecular target: T1, 5-hydroxytryptamine receptor 1A (Homo sapiens) (UniProt P08908); assay: Inhibition of human 5HT1A receptor at 10 uM
# T1 sequence (whole entry): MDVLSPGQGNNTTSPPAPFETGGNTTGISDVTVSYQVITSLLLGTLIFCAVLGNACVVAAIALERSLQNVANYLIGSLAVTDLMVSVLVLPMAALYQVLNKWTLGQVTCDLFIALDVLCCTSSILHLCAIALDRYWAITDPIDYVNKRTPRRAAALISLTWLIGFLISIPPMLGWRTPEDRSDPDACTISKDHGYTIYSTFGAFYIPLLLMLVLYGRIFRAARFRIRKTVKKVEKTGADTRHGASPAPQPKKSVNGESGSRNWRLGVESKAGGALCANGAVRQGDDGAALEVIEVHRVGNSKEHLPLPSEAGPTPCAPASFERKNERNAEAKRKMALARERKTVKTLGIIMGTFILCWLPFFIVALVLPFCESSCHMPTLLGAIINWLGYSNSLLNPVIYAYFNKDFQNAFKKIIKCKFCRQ
# [16] = Intrinsic clearance in rat hepatocytes at 0.3 uM incubated for 90 mins by LC/MS/MS analysis; assay type: ADME, cell-based, Hepatocyte; details: read-out: CLH
# rat Mdr1a (P-gp) [17] = assay: Apparent permeability from apical to basolateral side in rat Mdr1a-transfected pig LLC-PK1 cells at 0.1 to 1 uM measured after 3 hrs by LC/MS/MS analysis; assay type: ADME, cell-based, Sus scrofa; details: dose 0.1-1 µM
# Homo sapiens [18] = species: Homo sapiens; assay: Selectivity ratio of IC50 for AURKA (unknown origin) to IC50 for LRRK2 (unknown origin)
# [19] = In vivo inhibition of LRRK2 in po dosed CD rat assessed as unbound concentration required for reduction in phosphorylation at Ser935 residue in striatum measured after 2 hrs by MSD assay; assay type: functional
# rat Mdr1a (P-gp) [20] = assay: Efflux ratio of apparent permeability across basolateral to apical side over apical to basolateral side in rat Mdr1a-transfected pig LLC-PK1 cells at 0.1 to 1 uM measured after 3 hrs by LC/MS/MS analysis; assay type: ADME, cell-based, Sus scrofa; details: dose 0.1-1 µM
# [21] = Intrinsic clearance in Wistar Han rat at 2 mg/kg, iv by LC-MS/MS analysis; assay type: ADME, organism-based; details: in vivo
# [22] = molecular target: Leucine-rich repeat serine/threonine-protein kinase 2 (Homo sapiens, UniProt Q5S007, G2019S); assay: Inhibition of recombinant N-terminal GST-fused LRRK2 […] mutant (970 to 2527 residues) (unknown origin) preincubated with enzyme for 15 mins followed by fluorescein-labeled LRRKtide peptide substrate and ATP addition for 90 mins by TR-FRET assay
# Chain of Leucine-rich repeat serine/threonine-protein kinase 2 (Q5S007 whole entry G2019S, the tested form may be a part): as the sequence (Q5S007 whole entry G2019S) above
# [23] = MRT in Wistar Han rat at 2 mg/kg, iv by LC-MS/MS analysis; assay type: ADME, organism-based; details: in vivo
# [24] = Toxicity in rat assessed as elevation of liver enzyme biomarker levels at 300 mg/kg, po qd administered for 4 days; assay type: organism-based; details: in vivo, 96 h, time 4 day
# [25] = Oral bioavailability in Beagle dog at 0.5 mg/kg by LC-MS/MS analysis; assay type: ADME, organism-based, Canis lupus familiaris; details: in vivo
# Salmonella typhimurium [26] = assay: Mutagenicity in Salmonella typhimurium TA100 at 30 to 5000 ug incubated for 48 hrs in presence of liver S9 fraction by AMES test; assay type: toxicity, organism-based, Salmonella enterica subsp. enterica serovar Typhimurium; details: s9, 48 h, dose 30-5000 µg
# [27] = Oral bioavailability in Wistar Han rat at 10 mg/kg by LC-MS/MS analysis; assay type: ADME, organism-based; details: in vivo
# [28] = Toxicity in rat assessed as positive heart transcriptional score at 300 mg/kg, po qd administered for 4 days; assay type: organism-based; details: in vivo, 96 h, time 4 day
# Salmonella typhimurium [29] = assay: Mutagenicity in Salmonella typhimurium TA98 at 30 to 5000 ug incubated for 48 hrs in presence of liver S9 fraction by AMES test; assay type: toxicity, organism-based, Salmonella enterica subsp. enterica serovar Typhimurium; details: s9, 48 h, dose 30-5000 µg
# Salmonella typhimurium [30] = assay: Mutagenicity in Salmonella typhimurium TA1535 at 30 to 5000 ug incubated for 48 hrs in presence of liver S9 fraction by AMES test; assay type: toxicity, organism-based, Salmonella enterica subsp. enterica serovar Typhimurium; details: s9, 48 h, dose 30-5000 µg
structure (smiles),measurement,setting,value
CC(C)(O)Cn1ncc(Nc2ncc3cc(Cl)c(C4CCN(C5COC5)CC4)cc3n2)c1Cl,"efflux ratio at 3 h, up to 1 µM",mouse Bcrp,4.2
same,CLint scaled at 0.3 µM,[1],132 mL/min/kg
same,Ratio IC50,Homo sapiens [2],< 100
same,CL,[3],63 mL/min/kg
same,MRT,[4],7.8 h
same,fIC50,[5],58 nM
same,clearance,[6],11 mL/min/kg
same,Activity,[7],Non-Toxic
same,CLint scaled at 0.3 µM,[8],150 mL/min/kg
same,Activity,[9],Toxic
same,IC50,[10],23 µM
same,"Kp uu at 4 h, 2.5 µM",[11],0.3
same,clearance,[12],7 mL/min/kg
same,Ratio IC50,Homo sapiens [13],< 100
same,Activity,[14],11%
same,inhibition,[15],> 50%
same,CLint scaled at 0.3 µM,[16],311 mL/min/kg
same,"Papp A→B at 3 h, up to 1 µM",rat Mdr1a (P-gp) [17],33 ×10⁻⁶ cm/s
same,Ratio IC50,Homo sapiens [18],< 100
same,fIC50,[19],68 nM
same,"efflux ratio at 3 h, up to 1 µM",rat Mdr1a (P-gp) [20],4.2
same,CL,[21],175 mL/min/kg
same,IC50,[22],0.0008 µM
same,MRT,[23],2.7 h
same,Activity,[24],Toxic
same,bioavailability,[25],85%
same,Activity,Salmonella typhimurium [26],Non-Toxic
same,bioavailability,[27],95%
same,Activity,[28],Toxic
same,Activity,Salmonella typhimurium [29],Non-Toxic
same,Activity,Salmonella typhimurium [30],Non-Toxic
